Assay type in all cases: cell-based
The target of test [1] is T1, TYK2 (Homo sapiens, UniProt P29597). Kind of test: TYK2 degradation MSD assay in EBV-B cells. As to conditions: 4 to 24 hours incubation, read-out: TYK2 MSD DC50 rating in EBV-B. Further details: endogenous in cells; host or cells: EBV-B cells. Summed up: (§1)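 MSD electrochemiluminescence readout of residual TYK2 in RIPA lysates after 4–24 h compound exposure at 37° C. Dosing: 9 concentrations, 1:3 steps, top 1 to 10 μM. DC50 fitted by four-parameter inhibitor vs. response regression.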
T1 sequence (P29597 whole entry): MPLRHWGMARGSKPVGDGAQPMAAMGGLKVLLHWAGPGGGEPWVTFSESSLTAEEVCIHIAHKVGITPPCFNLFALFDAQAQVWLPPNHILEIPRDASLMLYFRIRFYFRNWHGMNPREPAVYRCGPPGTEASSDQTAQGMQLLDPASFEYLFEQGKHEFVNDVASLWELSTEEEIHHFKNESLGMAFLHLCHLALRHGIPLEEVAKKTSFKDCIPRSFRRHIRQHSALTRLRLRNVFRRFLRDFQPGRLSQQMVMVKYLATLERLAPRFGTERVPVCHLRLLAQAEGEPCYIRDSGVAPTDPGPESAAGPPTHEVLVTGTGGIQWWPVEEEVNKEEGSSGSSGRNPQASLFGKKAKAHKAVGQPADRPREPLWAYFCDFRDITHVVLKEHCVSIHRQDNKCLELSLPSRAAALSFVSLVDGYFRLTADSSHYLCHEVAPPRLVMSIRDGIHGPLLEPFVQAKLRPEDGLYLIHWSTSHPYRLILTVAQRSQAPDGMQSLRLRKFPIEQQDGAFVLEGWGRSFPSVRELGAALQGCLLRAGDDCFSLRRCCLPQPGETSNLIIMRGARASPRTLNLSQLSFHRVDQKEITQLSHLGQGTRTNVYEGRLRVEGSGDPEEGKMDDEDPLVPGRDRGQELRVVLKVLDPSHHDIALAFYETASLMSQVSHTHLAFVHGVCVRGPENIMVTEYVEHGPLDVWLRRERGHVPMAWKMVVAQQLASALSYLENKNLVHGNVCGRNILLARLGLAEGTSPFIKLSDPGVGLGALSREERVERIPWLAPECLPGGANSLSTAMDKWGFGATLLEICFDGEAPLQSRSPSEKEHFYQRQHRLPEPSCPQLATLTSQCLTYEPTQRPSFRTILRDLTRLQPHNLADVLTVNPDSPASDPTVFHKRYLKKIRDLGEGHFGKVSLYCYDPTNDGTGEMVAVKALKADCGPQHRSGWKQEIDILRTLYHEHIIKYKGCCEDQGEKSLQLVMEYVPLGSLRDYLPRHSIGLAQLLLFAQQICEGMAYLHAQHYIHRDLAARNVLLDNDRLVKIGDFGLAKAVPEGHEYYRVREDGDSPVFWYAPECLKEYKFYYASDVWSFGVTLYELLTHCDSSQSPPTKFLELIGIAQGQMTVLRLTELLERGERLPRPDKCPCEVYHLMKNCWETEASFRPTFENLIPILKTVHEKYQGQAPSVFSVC

The target in test [2] is T1, TYK2. Put plainly: TYK2 degradation MSD assay in OCI-LY10 cells. Further details: endogenous in cells; host or cells: EBV-B cells. As to conditions: 4 to 24 hours incubation, read-out: TYK2 MSD DC50 rating in OCI-LY10. Put shortly:
as §1

Test [3] has as its target T1, TYK2. Put plainly: TYK2 degradation MSD assay in human PBMC cells. The arrangement: endogenous in cells; host or cells: human PBMC. The conditions noted are these: 4 to 24 hours incubation, read-out: TYK2 MSD DC50 rating in human PBMC. Put shortly:
as §1

As to `CNC(=O)c1cnc(Nc2ccc(CN(C)C3CCCN(c4ccc5c(c4)n(C)c(=O)n5C4CCC(=O)NC4=O)C3)cn2)cc1Nc1cccc(-c2ncc(F)cn2)c1OC` (stereo not drawn) [Example K160], the DC50 in test [1] was under 1 nM; in test [2], over 100 nM; in test [3], over 100 nM.
As to `CNC(=O)c1cnc(Nc2ccc(CN3CC(N(C)c4cccc5c4n(C)c(=O)n5C4CCC(=O)NC4=O)C3)cn2)cc1Nc1cccc(-c2ncc(F)cn2)c1OC` (stereo not drawn) [Example K161], the figures for the DC50 in test [1], in test [2] and in test [3] were 1 to 10 nM, over 100 nM and over 100 nM, respectively.
For `CNC(=O)c1cnc(Nc2ccc(CN(C)C3CCCN(c4cccc5c4n(C)c(=O)n5C4CCC(=O)NC4=O)C3)cn2)cc1Nc1cccc(-c2ncc(F)cn2)c1OC` (stereo not drawn) [Example K162], the DC50 is 1 to 10 nM in test [1], over 100 nM in test [2] and over 100 nM in test [3].
Consider `CNC(=O)c1cnc(Nc2ccc(CN3CC(N(C)c4ccc5c(c4)n(C)c(=O)n5C4CCC(=O)NC4=O)C3)cn2)cc1Nc1cccc(-c2ncc(F)cn2)c1OC` (stereo not drawn) [Example K163], for which the DC50 in test [1], in test [2] and in test [3] was over 100 nM each time.
For the molecule `CNC(=O)c1cnc(Nc2ccc(CN3CCC(N(C)c4ccc5c(c4)n(C)c(=O)n5C4CCC(=O)NC4=O)C3)cn2)cc1Nc1cccc(-c2ncc(F)cn2)c1OC` (stereo not drawn) [Example K164], the DC50 in test [1] was under 1 nM; in test [2], over 100 nM; in test [3], over 100 nM.
Turning to `CNC(=O)c1cnc(Nc2ccc(CN3CCC(c4cccc5c4n(C)c(=O)n5C4CCC(=O)NC4=O)C3)cn2)cc1Nc1cccc(-c2ncc(F)cn2)c1OC` (stereo not drawn) [Example K165], the DC50 in test [1] is 1 to 10 nM; in test [2], over 100 nM; in test [3], over 100 nM.
In the case of `CNC(=O)c1cnc(Nc2ccc(CN3CCC(c4ccc5c(c4)n(C)c(=O)n5C4CCC(=O)NC4=O)C3)cn2)cc1Nc1cccc(-c2ncc(F)cn2)c1OC` (stereo not drawn) [Example K166], the values for the DC50 in test [1], in test [2] and in test [3] were under 1 nM, over 100 nM and over 100 nM, respectively.
Consider `CNC(=O)c1cnc(Nc2ccc(CN3CCC(c4cccc5c4n(C)c(=O)n5C4CCC(=O)NC4=O)CC3)cn2)cc1Nc1cccc(-c2ncc(F)cn2)c1OC` (stereo not drawn) [Example K167], for which the DC50 is under 1 nM in test [1], over 100 nM in test [2] and over 100 nM in test [3].
Take `CNC(=O)c1cnc(Nc2ccc(CN3CCCC(c4ccc5c(c4)n(C)c(=O)n5C4CCC(=O)NC4=O)C3)cn2)cc1Nc1cccc(-c2ncc(F)cn2)c1OC` (stereo not drawn) [Example K168]: the DC50 in test [1], in test [2] and in test [3] was over 100 nM in each case.
Consider `CCNC(=O)c1cnc(Nc2ccc(C(=O)N(C)C3CCN(c4cccc5c4n(C)c(=O)n5C4CCC(=O)NC4=O)CC3)cn2)cc1Nc1cccc(-c2ncc(F)cn2)c1OC` (stereo not drawn) [Example K169], for which the DC50 in test [1] is 1 to 10 nM; in test [2], over 100 nM; in test [3] it was over 100 nM.
As to `CNC(=O)c1cnc(Nc2ccc(CN(C)C3CCN(c4ccc5c(c4)n(C)c(=O)n5C4CCC(=O)NC4=O)C3)cn2)cc1Nc1cccc(-c2ncc(F)cn2)c1OC` (stereo not drawn) [Example K170], the values for the DC50 in test [1], in test [2] and in test [3] were under 1 nM, over 100 nM and over 100 nM, respectively.
Regarding `CNC(=O)c1cnc(Nc2ccc(CN(C)C3CCN(c4cccc5c4n(C)c(=O)n5C4CCC(=O)NC4=O)C3)cn2)cc1Nc1cccc(-c2ncc(F)cn2)c1OC` (stereo not drawn) [Example K171], the DC50 in test [1] is under 1 nM; in test [2], over 100 nM; in test [3], over 100 nM.
With `CNC(=O)c1cnc(Nc2ccc(CN3CCC(c4ccc5c(c4)n(C)c(=O)n5C4CCC(=O)NC4=O)CC3)cn2)cc1Nc1cccc(-c2ncc(F)cn2)c1OC` (stereo not drawn) [Example K172], the DC50 in test [1] is under 1 nM; in test [2], over 100 nM; in test [3] it was over 100 nM.
On to `CNC(=O)c1cnc(Nc2ccc(CN3CCN(c4cccc5c4n(C)c(=O)n5C4CCC(=O)NC4=O)CC3)cn2)cc1Nc1cccc(-c2ncc(F)cn2)c1OC` (stereo not drawn) [Example K173], for which the results for the DC50 in test [1], in test [2] and in test [3] were under 1 nM, over 100 nM and over 100 nM, respectively.
As to `CNC(=O)c1cnc(Nc2ccc(C3CCN(Cc4cccc5c4n(C)c(=O)n5C4CCC(=O)NC4=O)CC3)cn2)cc1Nc1cccc(-c2ncc(F)cn2)c1OC` (stereo not drawn) [Example K174], the DC50 is 1 to 10 nM in test [1], over 100 nM in test [2] and over 100 nM in test [3].
Turning to `CNC(=O)c1cnc(Nc2ccc(CN3CCC(N(C)c4ccc5c(c4)n(C)c(=O)n5C4CCC(=O)NC4=O)CC3)cn2)cc1Nc1cccc(-c2ncc(F)cn2)c1OC` (stereo not drawn) [Example K175], the values for the DC50 in test [1], in test [2] and in test [3] were under 1 nM, over 100 nM and under 1 nM, respectively.
`CNC(=O)c1cnc(Nc2cc(CN3CCN(c4cccc5c4n(C)c(=O)n5C4CCC(=O)NC4=O)CC3)ccn2)cc1Nc1cccc(-c2ncc(F)cn2)c1OC` (stereo not drawn) [Example K176]: the values for the DC50 in test [1], in test [2] and in test [3] were 1 to 10 nM, over 100 nM and under 1 nM, respectively.
The matching figures for `CNC(=O)c1cnc(Nc2ccc(CN3CCN(c4ccc5c(c4)n(C)c(=O)n5C4CCC(=O)NC4=O)CC3)cn2)cc1Nc1cccc(-c2ncc(F)cn2)c1OC` (stereo not drawn) [Example K177]: under 1 nM, over 100 nM and under 1 nM.
Regarding `CNC(=O)c1cnc(Nc2ccc(C(=O)N(C)C3CCN(c4ccc5c(c4)n(C)c(=O)n5C4CCC(=O)NC4=O)CC3)cn2)cc1Nc1cccc(-c2ncc(F)cn2)c1OC` (stereo not drawn) [Example K178], the values for the DC50 in test [1], in test [2] and in test [3] were under 1 nM, over 100 nM and under 1 nM, respectively.
On to `COc1c(Nc2cc(Nc3cc(C(=O)NCCCCc4cccc5c4n(C)c(=O)n5C4CCC(=O)NC4=O)ccn3)ncc2C(=O)NC2CC2)cccc1-c1ncc(F)cn1` (stereo not drawn) [Example K179], for which the DC50 in test [1] is over 100 nM; in test [2] it was over 100 nM; in test [3] it was 10 to 100 nM.
With `COc1c(Nc2cc(Nc3ccc(C(=O)NCCCCc4cccc5c4n(C)c(=O)n5C4CCC(=O)NC4=O)cn3)ncc2C(=O)NC2CC2)cccc1-c1ncc(F)cn1` (stereo not drawn) [Example K180], the DC50 in test [1] was 10 to 100 nM; in test [2], over 100 nM; in test [3], 1 to 10 nM.
As to `CCNC(=O)c1cnc(Nc2cc(C(=O)NCCCCc3cccc4c3n(C)c(=O)n4C3CCC(=O)NC3=O)ccn2)cc1Nc1cccc(-c2ncc(F)cn2)c1OC` (stereo not drawn) [Example K181], the figures for the 50% degradation concentration (DC50) in test [1], in test [2] and in test [3] were over 100 nM, over 100 nM and 1 to 10 nM, respectively.
On to `CCNC(=O)c1cnc(Nc2ccc(C(=O)NCCCCc3cccc4c3n(C)c(=O)n4C3CCC(=O)NC3=O)cn2)cc1Nc1cccc(-c2ncc(F)cn2)c1OC` (stereo not drawn) [Example K182], for which the DC50 in test [1] is 10 to 100 nM; in test [2] it was over 100 nM; in test [3], 1 to 10 nM.
The matching figures for `CNC(=O)c1cnc(NC(=O)NCCCCCCCCCc2cccc3c2n(C)c(=O)n3C2CCC(=O)NC2=O)cc1Nc1cccc(-c2ncc(F)cn2)c1OC` (stereo not drawn) [Example K183]: over 100 nM, over 100 nM and 1 to 10 nM.
The matching figures for `CNC(=O)c1cnc(NC(=O)NCCCCCCCCc2cccc3c2n(C)c(=O)n3C2CCC(=O)NC2=O)cc1Nc1cccc(-c2ncc(F)cn2)c1OC` (stereo not drawn) [Example K184]: over 100 nM, over 100 nM and 1 to 10 nM.

Usually DC50 stands for the midpoint of the concentration-degradation curve.

These data come from patent publication US20250051338A1, “TYK2 DEGRADERS AND USES THEREOF” (Kymera Therapeutics, Inc., priority 2021, published 2025).
